Data published in ChEMBL document CHEMBL3880389, “Heterocyclic compounds as inhibitors of the sodium iodide symporter” (2014).

Key:
[1] = target: T1, Sodium/iodide cotransporter (Rattus norvegicus, UniProt Q63008); assay: Inhibition of sodium iodide symporter in rat FRTL5 cells assessed as decrease in sodium iodide uptake after 60 mins by scintillation counting method; type: cell-based, FRTL-5
T1 sequence (Q63008 whole entry): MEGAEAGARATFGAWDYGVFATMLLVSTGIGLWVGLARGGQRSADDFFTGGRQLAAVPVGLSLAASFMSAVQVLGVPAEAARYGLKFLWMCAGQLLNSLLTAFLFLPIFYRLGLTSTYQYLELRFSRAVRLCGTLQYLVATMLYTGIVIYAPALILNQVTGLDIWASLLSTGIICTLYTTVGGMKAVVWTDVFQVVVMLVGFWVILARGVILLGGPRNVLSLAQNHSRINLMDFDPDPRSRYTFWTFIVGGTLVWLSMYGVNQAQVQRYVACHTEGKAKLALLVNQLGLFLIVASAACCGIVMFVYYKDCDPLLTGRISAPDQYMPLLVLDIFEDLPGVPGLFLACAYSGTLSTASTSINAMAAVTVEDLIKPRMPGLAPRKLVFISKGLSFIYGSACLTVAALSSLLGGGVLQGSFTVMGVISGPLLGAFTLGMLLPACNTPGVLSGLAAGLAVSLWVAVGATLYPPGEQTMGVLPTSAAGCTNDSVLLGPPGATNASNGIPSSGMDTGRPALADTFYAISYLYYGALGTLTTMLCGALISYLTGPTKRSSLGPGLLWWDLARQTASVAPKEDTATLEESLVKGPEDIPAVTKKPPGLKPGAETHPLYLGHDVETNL

[2] = target: T1, Sodium/iodide cotransporter; assay: Inhibition of sodium iodide symporter in rat FRTL5 cells assessed as decrease in [125I]-sodium iodide uptake after 60 mins by scintillation counting method; type: cell-based, FRTL-5

IC50 [2]	SMILES	IC50 [1]
	F[B-](F)(F)F	750 nM
	O=[N+]([O-])O	250000 nM
	F[P-](F)(F)(F)(F)F.[Na+]	9 nM
300 nM	O=[N+]([O-])c1cccc(C2NCCc3c2[nH]c2ccccc32)c1 (configuration not stated)	
400 nM	Brc1cccc(C2NCCc3c2[nH]c2ccccc32)c1 (configuration not stated)	
	[O-][Cl+3]([O-])([O-])O [PERCHLORATE]	140 nM
	N#CS [THIOCYANIC ACID]	14000 nM
